Test results published in the NIST ThermoML archive (doi:10.1016/j.jct.2014.01.012).

Assay: xn = mol fraction of the nth substance listed
Conditions: 101 kPa, Liquid; for speed of sound: Sing-around technique in a fixed-path interferometer; for mass density: Vibrating tube method

CCCCCCn1cc[n+](C)c1.F[P-](F)(F)(F)(F)F [1-hexyl-3-methylimidazolium hexafluorophosphate] + CCOC(C)=O
Conditions	mass density, 293.15 K [kg/m3]	mass density, 298.15 K [kg/m3]	mass density, 303.15 K [kg/m3]	speed of sound, 293.15 K [m/s]	speed of sound, 298.15 K [m/s]	speed of sound, 303.15 K [m/s]	speed of sound, 308.15 K [m/s]
x1 = 0.09053	985.573	980.708	975.56	1203.8	1182.9	1162.1	1141.5
x1 = 0.1751	1047.27	1042.71	1037.99	1245.1	1226	1207	1188.2
x1 = 0.2748	1103.27	1098.95	1094.55	1278.6	1260.9	1243.1	1225.7
x1 = 0.3638	1142.32	1138.08	1133.41	1312.1	1295.7	1279.1	1261.3
x1 = 0.4747	1181.82	1177.55	1173.05	1341.9	1326.9	1312.1	1297.4
x1 = 0.5959	1215.82	1211.68	1207.51	1369.5	1355.6	1341.7	1328
x1 = 0.6988	1239.42	1235.47	1231.55	1390.2	1376.8	1363.6	1350.6
x1 = 0.7782	1254.92	1251.3	1247.62	1404.4	1388.5	1375.4	1365
x1 = 0.8784	1272.57	1269.1	1265.46	1417.2	1402.5	1388.1	1375.1
x1 = 0.9562	1285.17	1281.27	1277.49	1428.1	1414.1	1402.6	1391
x1 = 1	1291.38	1287.34	1283.29	1436.9	1423.5	1410.6	1398.2
